Assay results taken from ChEMBL document CHEMBL1201862, “PubChem BioAssay data set” (2004).
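Dose response: 5 concentrations. Exposure: 48 h. Format: 96-well plates. Endpoint: linear interpolation; highest concentration if not reached. At the GI50, growth is halved.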 The source made the active and inactive calls. Cut-off read from the data, not from the text of the source: active = GI50 up to about 1.1 µM and inactive = higher.

Assays:
Assay in all cases: NCI anticancer screen, dose series, 48 h
SF-539 = tested on: SF-539
SK-MEL-5 = tested on: SK-MEL-5
OVCAR-4 = tested on: OVCAR-4
SK-MEL-2 = tested on: SK-MEL-2
UACC-62 = tested on: UACC-62
LOX IMVI = tested on: LOX IMVI
A498 = tested on: A498
UO-31 = tested on: UO-31
MDA-MB-231 = tested on: MDA-MB-231
SN12C = tested on: SN12C
BT-549 = tested on: BT-549
HCC 2998 = tested on: HCC 2998
KM12 = tested on: KM12
SNB-75 = tested on: SNB-75
HOP-62 = tested on: HOP-62
NCI-H460 = tested on: NCI-H460
NCI-H23 = tested on: NCI-H23
SF-268 = tested on: SF-268
DU-145 = tested on: DU-145
T47D = tested on: T47D

Structure (SMILES)	GI50 (SF-539)	GI50 (SK-MEL-5)	GI50 (OVCAR-4)	GI50 (SK-MEL-2)	GI50 (UACC-62)	GI50 (LOX IMVI)	GI50 (A498)	GI50 (UO-31)	GI50 (MDA-MB-231)	GI50 (SN12C)	GI50 (BT-549)	GI50 (HCC 2998)	GI50 (KM12)	GI50 (SNB-75)	GI50 (HOP-62)	GI50 (NCI-H460)	GI50 (NCI-H23)	GI50 (SF-268)	GI50 (DU-145)	GI50 (T47D)
CC1(C)N(OC2CCCCO2)C(c2ccccc2)C(c2ccccc2)=[N+]1[O-] (stereo unspecified)	> 100 µM (inactive)	52.1 µM (inactive)	> 100 µM (inactive)	51.1 µM (inactive)	> 100 µM (inactive)	> 100 µM (inactive)	> 100 µM (inactive)	59.8 µM (inactive)	> 100 µM (inactive)	> 100 µM (inactive)	> 100 µM (inactive)	> 100 µM (inactive)	93.5 µM (inactive)	20.1 µM (inactive)	> 100 µM (inactive)	66.7 µM (inactive)	49.9 µM (inactive)	–	–	–
COC(=O)C(Cc1ccccc1)NC(=O)C(CCCNC(=N)N)NC(=O)OCc1ccccc1 (stereo unspecified)	–	> 100 µM (inactive)	> 100 µM (inactive)	–	> 100 µM (inactive)	> 100 µM (inactive)	–	> 100 µM (inactive)	> 100 µM (inactive)	> 100 µM (inactive)	> 100 µM (inactive)	> 100 µM (inactive)	> 100 µM (inactive)	> 100 µM (inactive)	> 100 µM (inactive)	> 100 µM (inactive)	> 100 µM (inactive)	> 100 µM (inactive)	> 100 µM (inactive)	> 100 µM (inactive)
C/C(CC(O)(C(F)(F)F)C(F)(F)F)=N\NC(N)=S	> 10 µM (inactive)	> 10 µM (inactive)	> 10 µM (inactive)	> 10 µM (inactive)	> 10 µM (inactive)	> 10 µM (inactive)	> 10 µM (inactive)	> 10 µM (inactive)	> 10 µM (inactive)	> 10 µM (inactive)	–	> 10 µM (inactive)	> 10 µM (inactive)	> 10 µM (inactive)	> 10 µM (inactive)	> 10 µM (inactive)	> 10 µM (inactive)	> 10 µM (inactive)	> 10 µM (inactive)	> 10 µM (inactive)
S=C1CSc2c(ccc3ccccc23)N1	–	> 100 µM (inactive)	> 100 µM (inactive)	–	> 100 µM (inactive)	> 100 µM (inactive)	–	> 100 µM (inactive)	> 100 µM (inactive)	> 100 µM (inactive)	> 100 µM (inactive)	–	> 100 µM (inactive)	> 100 µM (inactive)	> 100 µM (inactive)	> 100 µM (inactive)	> 100 µM (inactive)	> 100 µM (inactive)	> 100 µM (inactive)	> 100 µM (inactive)
COc1ccc(CNc2cc(=O)n(C)c(=O)[nH]2)cc1	> 100 µM (inactive)	> 100 µM (inactive)	> 100 µM (inactive)	> 100 µM (inactive)	> 100 µM (inactive)	> 100 µM (inactive)	> 100 µM (inactive)	> 100 µM (inactive)	> 100 µM (inactive)	> 100 µM (inactive)	> 100 µM (inactive)	> 100 µM (inactive)	> 100 µM (inactive)	33.3 µM (inactive)	> 100 µM (inactive)	> 100 µM (inactive)	> 100 µM (inactive)	> 100 µM (inactive)	–	> 100 µM (inactive)
O=C(c1cccc(C(=O)c2ccc3c4c(cccc24)C(=O)N(c2ccccc2)C3=O)c1)c1ccc2c3c(cccc13)C(=O)N(c1ccccc1)C2=O	> 100 µM (inactive)	> 100 µM (inactive)	> 100 µM (inactive)	–	40 µM (inactive)	23.3 µM (inactive)	17.3 µM (inactive)	> 100 µM (inactive)	67.1 µM (inactive)	> 100 µM (inactive)	> 100 µM (inactive)	> 100 µM (inactive)	> 100 µM (inactive)	> 100 µM (inactive)	88.7 µM (inactive)	> 100 µM (inactive)	> 100 µM (inactive)	> 100 µM (inactive)	> 100 µM (inactive)	–
CSc1cc(Cl)c(C)cc1S(=O)(=O)NC(=O)NNc1cccc(C(F)(F)F)n1	51.8 µM (inactive)	> 100 µM (inactive)	> 100 µM (inactive)	> 100 µM (inactive)	–	> 100 µM (inactive)	> 100 µM (inactive)	–	> 100 µM (inactive)	> 100 µM (inactive)	–	> 100 µM (inactive)	> 100 µM (inactive)	91.8 µM (inactive)	> 100 µM (inactive)	> 100 µM (inactive)	–	> 100 µM (inactive)	> 100 µM (inactive)	> 100 µM (inactive)
CC(=O)Oc1cc(OC(C)=O)c2c(c1C)CC[C@@H]1[C@@H]2CC[C@]2(C)[C@@H](OC(C)=O)CC[C@@H]12	16.1 µM (inactive)	17.1 µM (inactive)	–	–	18.7 µM (inactive)	18.4 µM (inactive)	18.9 µM (inactive)	17.5 µM (inactive)	16.1 µM (inactive)	17.5 µM (inactive)	18.5 µM (inactive)	20.7 µM (inactive)	16.6 µM (inactive)	22.5 µM (inactive)	20.9 µM (inactive)	19.3 µM (inactive)	20.2 µM (inactive)	20.3 µM (inactive)	24.1 µM (inactive)	–
C=CCC1(C#N)C(=S)NC2=C(C(=O)CC(C)(C)C2)C1c1ccccc1 (stereo unspecified)	77.8 µM (inactive)	45.6 µM (inactive)	31 µM (inactive)	46.8 µM (inactive)	–	68.9 µM (inactive)	–	36.4 µM (inactive)	36.7 µM (inactive)	38.5 µM (inactive)	66.7 µM (inactive)	–	32.7 µM (inactive)	27 µM (inactive)	–	–	39.9 µM (inactive)	–	19.2 µM (inactive)	27.3 µM (inactive)
CCCCCCCCCCCCCCCCNC(=O)/C(O)=C/C(=O)c1ccc(C)cc1	> 10 µM (inactive)	> 10 µM (inactive)	> 10 µM (inactive)	> 10 µM (inactive)	–	> 10 µM (inactive)	> 10 µM (inactive)	> 10 µM (inactive)	> 10 µM (inactive)	> 10 µM (inactive)	–	> 10 µM (inactive)	> 10 µM (inactive)	> 10 µM (inactive)	> 10 µM (inactive)	> 10 µM (inactive)	> 10 µM (inactive)	> 10 µM (inactive)	> 10 µM (inactive)	> 10 µM (inactive)
Cc1cc2c(cc1-c1cc3c(cc1C)C(C(C)C)=C(O)C(=O)/C3=C\Nc1ccccn1)/C(=C/Nc1ccccn1)C(=O)C(O)=C2C(C)C	85.1 µM (inactive)	30.3 µM (inactive)	34.9 µM (inactive)	37.8 µM (inactive)	65 µM (inactive)	35.4 µM (inactive)	> 100 µM (inactive)	–	94.6 µM (inactive)	74.6 µM (inactive)	–	22.5 µM (inactive)	24.5 µM (inactive)	63.4 µM (inactive)	–	43.2 µM (inactive)	46.9 µM (inactive)	30.3 µM (inactive)	> 100 µM (inactive)	> 100 µM (inactive)
CCNc1cc2c3c(c1)CCN3CCC2	> 10 µM (inactive)	> 10 µM (inactive)	> 10 µM (inactive)	> 10 µM (inactive)	> 10 µM (inactive)	> 10 µM (inactive)	> 10 µM (inactive)	> 10 µM (inactive)	> 10 µM (inactive)	> 10 µM (inactive)	–	> 10 µM (inactive)	5.6 µM (inactive)	> 10 µM (inactive)	> 10 µM (inactive)	> 10 µM (inactive)	> 10 µM (inactive)	> 10 µM (inactive)	> 10 µM (inactive)	4.71 µM (inactive)
O=C1NC2ON=C(c3ccccc3)C2C2ON=C(c3ccccc3)N12 (stereo unspecified)	> 100 µM (inactive)	54 µM (inactive)	–	–	> 100 µM (inactive)	90.4 µM (inactive)	–	> 100 µM (inactive)	> 100 µM (inactive)	–	> 100 µM (inactive)	> 100 µM (inactive)	69.2 µM (inactive)	> 100 µM (inactive)	> 100 µM (inactive)	> 100 µM (inactive)	> 100 µM (inactive)	> 100 µM (inactive)	> 100 µM (inactive)	–
COc1ccc(C2C3CCc4ccccc4C3=NN2S(=O)(=O)c2ccc(/C=C/C(=O)O)cc2)cc1 (stereo unspecified)	2.3 µM (inactive)	4.01 µM (inactive)	7.23 µM (inactive)	2.71 µM (inactive)	2.82 µM (inactive)	4.73 µM (inactive)	–	5.74 µM (inactive)	4.84 µM (inactive)	6.25 µM (inactive)	10.4 µM (inactive)	–	1.82 µM (inactive)	–	5.61 µM (inactive)	3.52 µM (inactive)	< 0.01 µM (active)	5.35 µM (inactive)	22.1 µM (inactive)	7.06 µM (inactive)
O=S1(=O)OCCOS(=O)(=O)C1S(=O)(=O)c1cccc2ccccc12	–	> 100 µM (inactive)	> 100 µM (inactive)	> 100 µM (inactive)	–	46.7 µM (inactive)	–	> 100 µM (inactive)	> 100 µM (inactive)	> 100 µM (inactive)	> 100 µM (inactive)	> 100 µM (inactive)	> 100 µM (inactive)	–	> 100 µM (inactive)	54.6 µM (inactive)	> 100 µM (inactive)	–	> 100 µM (inactive)	–
Cn1cnc2c(OCC3CCCCC3)nc(N)nc21	> 100 µM (inactive)	70.6 µM (inactive)	> 100 µM (inactive)	> 100 µM (inactive)	> 100 µM (inactive)	66.1 µM (inactive)	–	72.9 µM (inactive)	> 100 µM (inactive)	> 100 µM (inactive)	> 100 µM (inactive)	> 100 µM (inactive)	> 100 µM (inactive)	36.3 µM (inactive)	> 100 µM (inactive)	> 100 µM (inactive)	> 100 µM (inactive)	> 100 µM (inactive)	> 100 µM (inactive)	–
